Source: publication PMC2947747 (Chembiochem : a European journal of chemical biology, 2008)

Assays:
Assay in all cases: reverse glycosyl transfer
Type in all cases: biochemical
Settings in all cases: 1 mM GDP, 1 mM MgCl2, pH 8.0, 30 °C; reverse reaction
NysDI-T2 = NysDI-T2 (Streptomyces noursei, UniProt Q9L4W6)
AmphDI = AmphDI (Streptomyces nodosus, UniProt Q93NW9)
NysDI = NysDI (Streptomyces noursei, UniProt Q9L4W6)

C[C@@H]1[C@H](O)[C@@H](C)/C=C/C=C/C=C/C=C/C=C/C=C/C=C/[C@H](O[C@@H]2O[C@H](C)[C@@H](O)[C@H](N)[C@@H]2O)C[C@@H]2O[C@](O)(C[C@@H](O)C[C@@H](O)[C@H](O)CC[C@@H](O)C[C@@H](O)CC(=O)O[C@H]1C)C[C@H](O)[C@H]2C(=O)O [compound 1, amphotericin B]
reverse glycosyl transfer (deglycosylation), RP-HPLC (NysDI-T2): reaction reversibility assessed in the presence of AmphDI, NysDI and NysDI-T2
reverse glycosyl transfer (deglycosylation), RP-HPLC (AmphDI): reaction reversibility assessed in the presence of AmphDI, NysDI and NysDI-T2
reverse glycosyl transfer (deglycosylation), RP-HPLC (NysDI): reaction reversibility assessed in the presence of AmphDI, NysDI and NysDI-T2
